Test results taken from patent publication US7572939B2, “Type of soluble pentacene precursor” (Academia Sinica, priority 2006, dated 2009).
Like-named read-outs stand apart in the source and are kept apart here.

Columns and labels:
Type in all cases: physicochemical
[1] = Solubility in organic solvents
Description: Compound (3) is quite soluble in dichloromethane benzene, toluene, acetone, and tetrahydrofuran (all in the range of ˜2.0 mM i.e. about 0.7 mg/mL solvent) but is not soluble in methanol, ethanol, or acetonitrile. Compound (3) can be applied to a surface of an article by spin coating, spray coating, screen printing or ink-jet printing to form a film. The film can be dried in any of the conventional ways including air drying or with mild heating, i.e. below about 120° C. Subsequent to drying, a chemical reaction is initiated preferably by the application of heat resulting, inter alia, in the driving off of volatile components including CO.

[2] = Thermal stability by TGA (thermal gravimetric analysis) and DSC
Description: Thermal initiated carbonyl extrusion can be depicted by both TGA (thermal gravimetric analysis) and DSC (differential scanning calorimetry) studies. […] The decarbonylation appears at 150° C. to yield pentacene, which decomposes at about 360° C. as measured by 5% weight loss. During the extrusion, Compound (3) loses about 9% weight corresponding to the weight ratio of CO in the molecule. The pentacene thus produced is stable up to temperatures of about 350° C. Above about 350° C., Compound (3) starts to experience thermal decomposition.
General: ^1H^13C NMR spectra were obtained on a Bruker AMX-400 spectrometer. Infrared spectra were recorded on a Perkin-Elmer 682 infrared spectrophotometer. Ultraviolet-visible absorption Spectra were recorded on a HP 8453 spectrophotometer. Differential scanning calorimetry was done on a Perkin-Elmer model DSC7 instrument. Thermal gravimetric analysis was performed by a Perkin-Elmer TGA7 analyzer.

[3] = Stability at ambient conditions

solubility ([1]; in methanol, ethanol or acetonitrile)	solubility ([1]; organic solvent or mixture, in dichloromethane, benzene, toluene, acetone and tetrahydrofuran (all in this range), read-out: solubility) [µM]	solubility ([1]; organic solvent or mixture, in dichloromethane, benzene, toluene, acetone and tetrahydrofuran, per mL solvent, read-out: solubility) [mg/mL]	temperature above which thermal decomposition starts ([2]; TGA)	fragmentation (decarbonylation) temperature ([2]; TGA/DSC, 10° C./min heating rate, CO extrusion to yield pentacene) [°C]	weight loss during CO extrusion ([2]; TGA, corresponds to weight ratio of CO in the molecule)	stability [3]	SMILES	decomposition temperature ([2]; TGA, as measured by 5% weight loss)	temperature up to which stable ([2]; TGA, pentacene produced from the precursor)
not soluble	~2000	~0.7	Above 350 °C	150	about 9%	stable	O=C1C2c3cc4ccccc4cc3C1c1cc3ccccc3cc12 [Compound (3), 6,13-dihydro-6,13-methanopentacene-15-one]		
							c1ccc2cc3cc4cc5ccccc5cc4cc3cc2c1 [pentacene]	about 360 °C	about 350 °C
